Experimental data reported in patent publication US20170166555A1, “FUNCTIONALISED AND SUBSTITUTED INDOLES AS ANTI-CANCER AGENTS” (Novogen Limited, priority 2013, published 2017).

Experiments:
[1] = tested on: MDA-MB-231 triple negative breast cancer cells; experiment: Anti-proliferative assay, cell-titre luminescent reagent, 72 h (GVK-BIO); type: cell-based; conditions: Homo sapiens, MDA-MB-231, 72 h, 30, 3, 0.3 and 0.03 μM, linear regression (Tables 2-4)
How it was run: (§1)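 Cells were seeded, attached over 24 h at 37 °C/5% CO2, then exposed 72 h to 30, 3, 0.3, 0.03 μM or 30, 10, 3, 1, 0.3, 0.1 μM compound, with luminescent viability reagent read after 30 min. IC50 came from linear regression of percent-of-control, or EC50 from sigmoidal variable-slope fit against vehicle.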

[2] = tested on: CaCo2 colorectal cancer cells; experiment: as above; type: cell-based; conditions: Homo sapiens, Caco-2, 72 h, 30, 3, 0.3 and 0.03 μM, linear regression (Tables 2-4)
How it was run: as §1

[3] = tested on: DU145 prostate cancer cells; experiment: as above; type: cell-based; conditions: Homo sapiens, DU-145, 72 h, 30, 3, 0.3 and 0.03 μM, linear regression (Tables 2-4)
How it was run: as §1

[4] = tested on: A549 non-small cell lung carcinoma cells; experiment: as above; type: cell-based; conditions: Homo sapiens, A549, 72 h, 30, 3, 0.3 and 0.03 μM, linear regression (Tables 2-4), read-out: IC50/μM Lung (NSLC) A549
How it was run: as §1

[5] = tested on: SK-N-SH neuroblastoma cells; experiment: as above; type: cell-based; conditions: Homo sapiens, SK-N-SH, 30, 3, 0.3 and 0.03 μM, linear regression (Tables 2-4)
How it was run: as §1

[6] = tested on: PC3 prostate cancer cells; experiment: as above; type: cell-based; conditions: 30, 3, 0.3 and 0.03 μM, linear regression (Tables 2-4)
How it was run: as §1

SK-Mel-28 melanoma cells = experiment: as above; type: cell-based; conditions: Homo sapiens, SK-MEL-28, 72 h, 30, 3, 0.3 and 0.03 μM, linear regression (Tables 2-4)
How it was run: as §1

Tm5NM1 = Tm5NM1 (Homo sapiens, UniProt P06753); experiment: Pyrene-based actin filament depolymerization assay; type: biochemical; conditions: for Rate of depolymerization of Tm5NM1-containing actin filaments in the presence of compound (in words): Tm5NM1 pre-incubated with 50 μM compound, compared to F-actin alone
Tm5NM1, sequence (P06753 1-248 isoform P06753-2): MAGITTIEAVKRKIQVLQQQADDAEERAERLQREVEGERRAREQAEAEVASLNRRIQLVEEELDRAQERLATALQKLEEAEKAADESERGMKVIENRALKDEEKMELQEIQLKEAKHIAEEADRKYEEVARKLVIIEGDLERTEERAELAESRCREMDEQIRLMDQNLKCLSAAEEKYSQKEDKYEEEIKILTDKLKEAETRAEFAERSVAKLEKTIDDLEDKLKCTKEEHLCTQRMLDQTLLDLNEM
Method: FIG. 4: Impact of compounds 4015 and 4093 on Tm5NM1-regulated actin-filament depolymerization kinetics. (A, C and E) Depolymerization time course of 6 μM actin filaments (35% pyrene labelled) diluted 12-fold into F-actin buffer (100 mM NaCl, 10 mM Tris-HCl pH 7.0, 2 mM MgCl2, 1 mM EGTA, 0.2 mM CaCl2, 0.2 mM ATP, 0.5 mM DTT, 0.01% (v/v) NaN3) in the presence or absence of saturating amounts (10 μM) of Tm5NM1. Final concentration of F-actin and Tm5NM1 was 0.5 μM and 0.83 μM respectively. Tm5NM1 was pre-incubated with 50 μM 4015, 4093 or 1% (v/v) DMSO prior to mixing with F-actin. Depolymerization data is normalized to the initial fluorescence value. (B, D and F) Initial rates (V0) of depolymerization for F-actin alone or Tm5NM1/F-actin, in the presence of compound 4015 or 4093. Initial rates of depolymerization were determined from the first 3600 s, fitted to a linear regression model. Data represents mean ±SEM, averaged from n>8 replicates. **** p<0.0001, ** p<0.005.
A brief overview and rationale of the assay is as follows: to promote depolymerization, pyrene-labelled actin filaments were diluted below the critical concentration of the pointed end (0.5 μM, as defined by Pollard et al., 1986). A decline in fluorescence was measured over time as actin monomers dissociate. […] Therefore, any compound, which interacts with, and impacts Tm5NM1 function, would nullify the protective effect of Tm5NM1 on actin depolymerization.
For all assays the depolymerization of F-actin alone and F-actin-coated with the human homologue of Tm5NM1 was used as a comparative control. Briefly, Tm5NM1 was pre-incubated with F-actin for 20 minutes prior to diluting the filaments, to allow for proper assembly of the Tm5NM1 polymer.
The depolymerization of F-actin alone and F-actin-coated with Tm5NM1 was then measured in the presence of test compound and initial rates of depolymerization were compared. Tm5NM1 was pre-incubated with 50 μM 4015 and 4093 prior to being added to the actin filaments as previously described. In the presence of compound 4015, the rate of depolymerization of Tm5NM1-containing actin filaments was increased.

Row | Initial rate (V0) of depolymerization, F-actin alone (Tm5NM1; 50 μM compound, FIG. 4E and F) | Initial rate (V0) of depolymerization, Tm5NM1-containing actin (Tm5NM1; 50 μM compound, FIG. 4E and F) | SMILES | IC50 [1] [µM] | IC50 [2] [µM] | IC50 [3] [µM] | IC50 [4] [µM] | IC50 [5] [µM] | IC50 [6] [µM] | IC50 (SK-Mel-28 melanoma cells) [µM] | Rate of depolymerization of Tm5NM1-containing actin filaments in the presence of compound (in words) (Tm5NM1)
1 | – | – | Cc1c(C)n(CCCN(C)C)c2ccc(CN3CCN(CCc4ccccc4)CC3)cc12 [Compound 4015, 3-(2,3-dimethyl-5-((4-phenethylpiperazin-1-yl)methyl)-1H-indol-1-yl)-N,N-dimethylpropan-1-amine] | 3 | 2.9 | 3.7 | 1.8 | 4.6 | 2.9 | 3.9 | increased
2 | −0.30±0.029×10^−4 | −0.26±0.028×10^−4 | Cc1c(C)n(CCCN(C)C)c2ccc(Oc3ccc(C(=O)Nc4ccc(F)cc4)cc3)cc12 [Compound 4093, 4-((1-(3-(dimethylamino)propyl)-2,3-dimethyl-1H-indol-5-yl)oxy)-N-(4-fluorophenyl)benzamide] | 2.1 | 1.8 | 1.7 | 3 | 2.5 | 1.2 | 0.9 | no significant difference
